Here are results for 5 compounds from patent US6200989A, “2-alkylidene hydroxycumaranone derivatives” (Hoffmann-La Roche Inc., priority 1997, dated 2001).

A word on the IC50: it is the midpoint of a concentration-inhibition curve.

Chain of uPAR (Q03405 23-305 limits assumed): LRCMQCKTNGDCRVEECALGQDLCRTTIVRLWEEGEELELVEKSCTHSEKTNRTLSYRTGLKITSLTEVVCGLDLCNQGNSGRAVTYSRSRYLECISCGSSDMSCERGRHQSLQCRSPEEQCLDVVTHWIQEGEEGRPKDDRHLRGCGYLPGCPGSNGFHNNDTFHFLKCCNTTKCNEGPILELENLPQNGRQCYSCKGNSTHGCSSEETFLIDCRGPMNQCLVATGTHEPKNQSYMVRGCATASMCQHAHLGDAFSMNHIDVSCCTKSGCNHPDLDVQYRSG

The test addresses uPAR (Homo sapiens, UniProt Q03405). Description: ELISA test: inhibition of human urokinase (uPA) binding to its specific receptor uPAR. The note with it: test substance preincubated 30 min at room temperature. The procedure:
Compounds of the invention were tested (ELISA test) as inhibitors of human urokinase (uPA) binding to its specific receptor uPAR mAk (BIO-R4), according to the procedure described in Biol. Chem. Hoppe-Seyler, 376, 587-94 (1995) by Rettenberger et al. The assays are performed in Microtiterplates (96 wells). The following solutions are used:
washing buffer PBS-buffer (without Mg^2+ and Ca^2+)+0.05% Tween 20;
incubation buffer (IP): 1% skimmed milk powder in PBS-buffer (without Mg^2+ and Ca^2+);
BIO-R4 solution: 50 ng/well (0.5 (g/ml; 100 (l/well) in IP;
uPAR solution: 3 ng/well (30 ng/ml; 100 (l/well) in PBS-buffer (without Mg^2+ and Ca^2+);
blocking solution: 1% skimmed milk powder in washing buffer (dissolved at 37° C.);
uPA solution: 0.25 ng/well (5 ng/ml; 50 (l/well) in IP.
Detect ion solutions (per microtiterplate):
(1) 6 ml (100 mM Tris-Cl pH 7.2+0.15% Tween 80)+1.5 ml (10 (g) Plasminogen in aqua bidest;
(2) 6 ml (100 mM Tris-Cl pH 7.2+0.15% Tween 80)+1.5 ml (7.5 mg) chromozyme PL in aqua bidest.
The detection solution must be continuously stirred. Testing substances: the testing substances are dissolved in DMSO. They are used in the test system with a highest concentration of 100 (g/ml. The solutions are prepared using PBS.
Three controls are performed:
a) positive control: using 2% DMSO in PBS;
b) negative control: assay without receptor;
1) inhibition (IC95 at 0.25 mg/ml) with dextranesulfate (MW=500.000);
2) inhibition (IC90 at 1 (g/ml) with inactivated uPA (175 (g/ml).
Incubation is done as follows:
Each well is incubated by 100 (1 of BIO-R4 (c=0.5 (g/ml) for 1 hour at room temperature under shaking. After washing three times with the washing buffer, each well is incubated for 1 hour (37° C.) with 200 (l/well blocking solution. After triple washing each well is incubated for 1 hour at room temperature under shaking with 100 (l/well uPAR (c=30 ng/ml), then the wells are washed again three times with the washing buffer. The testing substance solution and the control solution, respectively, are added (50 (l/well) and are incubated for 30 minutes at room temperature under shaking. An additional 50 (l of uPA solution (c=2.5 ng/ml) are added. After 1 hour at room temperature a triple washing is performed.
For detection, the following procedure is used:
Incubation with 50 (l each of detection solution (1) and (2) at room temperature. After 20 minutes a yellow colour will be visible (the positive control reads an extinction of 1 after 45-60 minutes). The detection is performed at 405 nm (reference is 490 nm) using a Dynatech MR 7000 ELISA reader. To obtain the percentage of inhibition the following formula is used (E stands for extinction): [formula]
With `CC(C)=C1Oc2cccc(OCCCN3CCC(NC(=O)c4ccc(Cl)c(S(N)(=O)=O)c4)CC3)c2C1=O` [4-(3-(4-(3-aminosulfonyl-4-chlorobenzamido)piperidin-1yl)propoxy)-2-isopropylidenecumaran-3-one], the IC50 is 91.2 nM.

`CC(C)=C1Oc2cccc(OCCCCN3CCC(NC(=O)c4ccc(Cl)c(Cl)c4)CC3)c2C1=O` [4-(4-(4-(3,4-dichlorobenzamido)piperidin-1-yl)butoxy)-2-isopropylidenecumaran-3-one] yielded an IC50 greater than 19.3 nM. The same measure for `CC(C)=C1Oc2cccc(OCCOCCN3CCC(NC(=O)c4ccc(F)cc4)CC3)c2C1=O` [4-[(2-(2-(4-(4-fluorobenzamido)piperidin-1-yl)ethyl)oxy)ethyloxy]-2-isopropylidenecumaran-3-one]: 104 nM. `CC(C)=C1Oc2cccc(OC/C=C/CN3CCC(NC(=O)c4ccc(Cl)c(Cl)c4)CC3)c2C1=O` [(E)-4-(4-(4-(3,4-dichlorobenzamido)piperidin-1-yl)-2-butenoxy)-2-isopropylidenecumaran-3-one] had an IC50 greater than 19.4 nM. `CC(C)=C1Oc2cccc(OC/C=C\CN3CCC(NC(=O)c4ccc(Cl)c(Cl)c4)CC3)c2C1=O` [(Z)-4-(4-(4-(3,4-dichlorobenzamido)piperidin-1-yl)-2-butenoxy)-2-isopropylidenecumaran-3-one] displayed an IC50 greater than 19.4 nM.
